From PMC8881077 (Journal of Enzyme Inhibition and Medicinal Chemistry, 2022)
Where “and” joins values, the source holds several entries; their conditions need not be identical. Equal values may be shown once. Read-outs that look alike come from different tables or passages of the source.

How the values were obtained:
[1] = PAMPA-BBB; for Pe: final concentration 100 μg/mL
[2] = Metal-chelating property, UV-visual spectrometry; assay type: physicochemical; conditions: for molar ratio at intersection: complex with Cu^2+; for maximum absorption wavelength after adding AlCl3: compound and AlCl3 37.5 μM in methanol; for maximum absorption wavelength after adding CuCl2: compound and CuCl2 37.5 μM in methanol; for maximum absorption after adding FeSO4: compound and FeSO4 37.5 μM in methanol; for maximum absorption after adding ZnCl2: compound and ZnCl2 37.5 μM in methanol
Procedure: The chelating property of compounds 5f and 7k were determined by UV-visual spectrometry and biometals such as Cu^2+, Zn^2+, Al^3+ and Fe^2+ were applied[19]^,[20]. […] The stoichiometry of the 5f-Cu^2+ complex was determined using the molar ratio method by preparing solutions of compound 5f with increasing amounts of CuCl2 at 386 nm.
Further, the stoichiometry of the 7k-Cu^2+ complex was determined using the molar ratio method at 385 nm.
The metal chelation property was investigated by UV absorption in a Shimadzu UV-2450 spectrophotometer. The detailed procedure referenced our previous work[20]^,[22].

PC12 cells [3] = assay: Neuroprotective effect on H2O2-induced PC12 cells injury, MTT assay; assay type: cell-based; conditions: 100 μM H2O2, PC12 cells
BV-2 cells = assay: Cytotoxicity on BV-2 cells, MTT assay; assay type: cell-based; conditions: 1 μM, 3 μM and 9 μM
Procedure: Compounds 5f and 7k were selected to test the anti-inflammatory potency by measuring the production of inflammatory mediators TNF-α and NO in LPS-induced BV-2 cells[32]^,[33]. • Cytotoxicity of compounds 5f and 7k on BV-2 cells. Firstly, the cytotoxicity of compounds 5f and 7k were tested using an MTT assay. […] In inhibition of LPS-induced, NO production was tested through the Griess reaction method. […] […]. In addition, to further investigate the effects of compounds 5f and 7k on LPS-induced TNF-α production in BV-2 cells, the enzyme-linked immunosorbent assay (ELISA) was used. […].
The anti-neuroinflammatory property of compounds 5f and 7k was assessed using BV-2 cells by evaluating the level of NO production and TNF-α production[32]^,[33]. Firstly, the cytotoxicity of compounds 5f and 7k was tested on BV-2 cells using an MTT assay. BV-2 cells were seeded in DMEM (100 μL) and cultured in a 96-well cell culture microplate and incubated in a humidified incubator containing 5% CO2 at 37 °C for 24 h. Then, 10 μL of 5f or 7k were added to cells in triplicate wells, followed by incubation for another 30 min. […] Finally, the crystals obtained were dissolved in DMSO (200 μ L) and OD values were measured at 490 nm. The results were recorded and expressed as the percent cell viability compared to the control group.

[4] = for ORAC: Trolox as standard
Procedure: The skeleton compounds naringenin and apigenin were also evaluated for comparison purposes, and vitamin E analogue Trolox was used as a standard.
The antioxidant potency of target compounds was tested using an oxygen radical absorbance capacity fluorescein (ORAC-FL) assay.

PC12 cells [5] = assay: Cytotoxicity on PC12 cells, MTT assay; assay type: cell-based; conditions: 40 μM
huBuChE = target: T1, huBuChE (Homo sapiens, UniProt P06276); assay: biochemical; assay type: biochemical; conditions: from human serum; read-out: IC50 ± SD huBuChE
T1 construct: BuChE from rat serum or human serum (Sigma Co.); purchased Sigma Co; host or cells: human serum
T1 sequence (P06276 29-602): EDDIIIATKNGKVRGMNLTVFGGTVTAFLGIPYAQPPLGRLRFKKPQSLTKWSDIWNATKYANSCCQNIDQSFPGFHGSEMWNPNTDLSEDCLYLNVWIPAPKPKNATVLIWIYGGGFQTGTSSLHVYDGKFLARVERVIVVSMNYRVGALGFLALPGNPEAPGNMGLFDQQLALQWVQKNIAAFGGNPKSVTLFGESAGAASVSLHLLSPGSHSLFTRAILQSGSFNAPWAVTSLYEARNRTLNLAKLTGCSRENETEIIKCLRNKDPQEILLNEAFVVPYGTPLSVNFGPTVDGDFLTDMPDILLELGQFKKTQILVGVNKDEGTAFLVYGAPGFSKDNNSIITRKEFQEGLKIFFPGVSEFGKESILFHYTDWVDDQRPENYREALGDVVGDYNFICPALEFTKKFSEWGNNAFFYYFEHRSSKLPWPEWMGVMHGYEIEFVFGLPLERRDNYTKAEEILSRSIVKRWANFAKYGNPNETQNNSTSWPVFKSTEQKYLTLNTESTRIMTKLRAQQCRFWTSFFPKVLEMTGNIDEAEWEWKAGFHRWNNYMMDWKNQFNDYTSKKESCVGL
Procedure: (§1) The AChE and BuChE inhibitory activities of the synthesised compounds were evaluated using the Ellman assay with slight modification. AChE from 5% rat cortex homogenate or human erythrocytes (Sigma Co.). BuChE from rat serum or human serum (Sigma Co.).

huAChE = huAChE (Homo sapiens, UniProt P22303); assay type: biochemical; parameters: AChE from human erythrocytes (Sigma Co.); purchased Sigma Co; host or cells: human erythrocytes; conditions: for huAChE activity restored: 0.1 × IC50, at 60 min, Figure 2B; for huAChE activity increase when diluted to 0.1 × IC50: Figure 2A, dilution to 0.1 × IC50
Chain of huAChE (P22303 32-617 isoform P22303-2 limits assumed): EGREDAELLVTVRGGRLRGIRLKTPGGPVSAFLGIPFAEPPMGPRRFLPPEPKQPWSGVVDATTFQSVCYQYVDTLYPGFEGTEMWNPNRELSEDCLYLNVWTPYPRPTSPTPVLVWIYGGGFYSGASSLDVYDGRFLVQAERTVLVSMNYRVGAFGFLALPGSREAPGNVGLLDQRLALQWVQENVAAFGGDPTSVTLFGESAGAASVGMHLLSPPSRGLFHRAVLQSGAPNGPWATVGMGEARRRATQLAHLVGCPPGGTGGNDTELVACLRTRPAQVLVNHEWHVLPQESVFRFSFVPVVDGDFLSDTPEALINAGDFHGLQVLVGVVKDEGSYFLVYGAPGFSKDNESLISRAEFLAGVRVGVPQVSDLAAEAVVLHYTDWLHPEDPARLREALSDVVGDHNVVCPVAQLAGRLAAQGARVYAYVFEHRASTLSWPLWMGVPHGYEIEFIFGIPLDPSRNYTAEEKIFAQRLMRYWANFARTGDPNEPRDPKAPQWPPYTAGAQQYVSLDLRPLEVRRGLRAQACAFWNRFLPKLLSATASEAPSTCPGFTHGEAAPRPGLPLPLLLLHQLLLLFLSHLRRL
Procedure: In order to further explore the reversibility of inhibition, the recovery of huAChE inhibitors inhibition after dilution was carried out with time monitoring.
Data were expressed as the mean ± SEM by three independent experiments.

[6] = system: NO production in LPS-induced BV-2 cells; assay: NO production in BV-2 cells, Griess reaction; assay type: cell-based; conditions: for release volume of NO in BV-2 cells without LPS: 3 μM and 9 μM
Procedure: Compounds 5f and 7k were selected to test the anti-inflammatory potency by measuring the production of inflammatory mediators TNF-α and NO in LPS-induced BV-2 cells[32]^,[33]. • Cytotoxicity of compounds 5f and 7k on BV-2 cells. Firstly, the cytotoxicity of compounds 5f and 7k were tested using an MTT assay. […] In inhibition of LPS-induced, NO production was tested through the Griess reaction method. […] In addition, to further investigate the effects of compounds 5f and 7k on LPS-induced TNF-α production in BV-2 cells, the enzyme-linked immunosorbent assay (ELISA) was used.
Griess reagent system was used to evaluate the inhibition of LPS-induced NO production. The methods of culturing BV-2 cells, setting blank control and adding tested compounds 5f or 7k (1 μM, 3 μM and 9 μM) and LPS were the same as those in the cytotoxicity assay. After that, the cell culture supernatants and different concentrations of NaNO2 as a standard were added to a 96-well plate since the NaNO2 concentration in the supernatant could act as an indicator of NO production. Then, to each well was added the same volume of Griess reagent and incubated at room temperature for 10 min. Finally, the absorbance was monitored at 540 nm using an ELISA plate reader to measure the results of NO production.

ratAChE = target: T2, ratAChE (Rattus norvegicus, UniProt P37136); assay: biochemical; conditions: for SI: Selectivity Index = IC50 (BuChE)/IC50 (AChE), rat enzymes; for IC50: from 5% rat cortex homogenate, read-out: IC50 ± SD ratAChE
T2 construct: AChE from 5% rat cortex homogenate or human erythrocytes (Sigma Co.); from tissue; host or cells: 5% rat cortex homogenate
T2 sequence (P37136 32-614): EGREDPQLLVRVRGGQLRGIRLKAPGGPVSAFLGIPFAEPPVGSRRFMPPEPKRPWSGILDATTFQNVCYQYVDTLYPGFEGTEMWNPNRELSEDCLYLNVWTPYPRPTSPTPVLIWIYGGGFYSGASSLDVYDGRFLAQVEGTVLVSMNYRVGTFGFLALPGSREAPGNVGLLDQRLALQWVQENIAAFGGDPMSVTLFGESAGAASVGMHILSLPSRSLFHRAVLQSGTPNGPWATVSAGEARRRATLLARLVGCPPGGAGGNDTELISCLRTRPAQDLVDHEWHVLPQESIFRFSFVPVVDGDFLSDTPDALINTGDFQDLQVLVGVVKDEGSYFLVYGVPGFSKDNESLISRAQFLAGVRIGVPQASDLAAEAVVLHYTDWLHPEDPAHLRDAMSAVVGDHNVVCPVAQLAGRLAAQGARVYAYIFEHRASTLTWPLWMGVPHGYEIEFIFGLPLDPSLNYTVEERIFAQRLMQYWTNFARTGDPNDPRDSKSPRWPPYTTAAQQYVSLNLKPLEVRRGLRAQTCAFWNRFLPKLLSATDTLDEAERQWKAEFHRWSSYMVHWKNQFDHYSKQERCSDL
Procedure: as §1

Row | Compound | Prediction [1] | Pe [1] | molar ratio at intersection [2] | maximum absorption wavelength after adding AlCl3 [2] | maximum absorption wavelength after adding CuCl2 [2] | maximum absorption after adding FeSO4 [2] | maximum absorption after adding ZnCl2 [2] | cell viability of BV-2 cells (BV-2 cells) | ORAC [4] | cytotoxicity on PC12 cells (PC12 cells [5]) | IC50 (huBuChE) | reversibility of huAChE inhibition (huAChE) | huAChE activity (% control) (huAChE; 0.1*IC50, diluted) | huAChE activity restored (huAChE) | huAChE activity (% control) (huAChE; 1*IC50, diluted) | huAChE activity (% control) (huAChE; 1*IC50, undiluted) | huAChE activity increase when diluted to 0.1 × IC50 (huAChE) | release volume of NO in BV-2 cells without LPS ([6]; 1 μM) | SI (ratAChE) | IC50 (ratAChE) | further results
1 | 7-((6-(benzyl(ethyl)amino)hexyl)oxy)-2–(4-((6-(benzyl(ethyl)amino)hexyl)oxy)phenyl)-5-hydroxychroman-4-one [Compound 7k] | CNS+ (Pe > 3.44 displayed high BBB permeation) | 11.7 ×10^−6 cm/s and 11.7 ± 0.54 ×10^−6 cm/s | 1.1 | did not show an obvious change | 385 nm | did not show an obvious change | did not show an obvious change | did not show obvious change | 1.2 ± 0.02 μM of Trolox equivalent/μM of tested compound | did not show any cytotoxicity | 8.2 ± 0.37 µM | reversible | 61.2 % control | 96.8% | 53.4 % control | 52.6 % control | 7.8% | did not produce significant change | 18.7 | 0.79 ± 0.06 µM | cell viability (PC12 cells [3]; compound 2.5 μM): 58.3%; cell viability (PC12 cells [3]; compound 5.0 μM): 63.7%; cell viability (PC12 cells [3]; compound 10.0 μM): 69.8%; inhibition rate of LPS-induced NO production ([6]; 1 μM, 1 μg/mL LPS): 26.7%; inhibition rate of LPS-induced NO production ([6]; 3 μM, 1 μg/mL LPS): 36.2%; inhibition rate of LPS-induced NO production ([6]; 9 μM, 1 μg/mL LPS): 48.5%
2 | CCN(CCCCCOc1cc(O)c2c(c1)OC(c1ccc(O)cc1)CC2=O)Cc1ccccc1 (centres unmarked) [Compound 5f, 7-((5-(benzyl(ethyl)amino)pentyl)oxy)-5-hydroxy-2–(4-hydroxyphenyl)chroman-4-one] | CNS+ (Pe > 3.44 displayed high BBB permeation) | 6.9e-06 cm/s | 1.1 | 388 nm | 386 nm | did not present obvious shift | did not present obvious shift | did not show obvious change | 2.3 ± 0.03 μM of Trolox equivalent/μM of tested compound | did not show any cytotoxicity | 6.3 ± 0.74 µM | reversible | 55.6 % control | 89.8% | 48.7 % control | 47.9 % control | 6.9% | did not produce significant change | 9.9 | 1.7 ± 0.08 µM | viability at 2.5 µM (PC12 cells [3]; Rattus norvegicus, PC-12, compound 2.5 μM, read-out: cell viability): 62.9%; viability at 5 µM (PC12 cells [3]; Rattus norvegicus, PC-12, compound 5.0 μM, read-out: cell viability): 68.2%; viability at 10 µM (PC12 cells [3]; Rattus norvegicus, PC-12, compound 10.0 μM, read-out: cell viability): 73.4%; ORAC values [4]: 2.3 eq; inhibition at 1 µM ([6]; Mus musculus, BV-2, 1 μM, 1 μg/mL LPS, read-out: inhibition rate of LPS-induced NO production): 37.6%; inhibition at 3 µM ([6]; Mus musculus, BV-2, 3 μM, 1 μg/mL LPS, read-out: inhibition rate of LPS-induced NO production): 52.1%; inhibition at 9 µM ([6]; Mus musculus, BV-2, 9 μM, 1 μg/mL LPS, read-out: inhibition rate of LPS-induced NO production): 63.8%
